Assay results reported in patent publication US8722864B2 (Nutek Pharma Ltd., priority 2010, dated 2014).
“And” between values parts separate entries of the source, which are not always exact repeats. Equal values may be shown once.

Assays:
[1] = Water (D2O) solubility by 1H NMR against DSS standard; format: physicochemical; conditions: for solubility at 3 days: water, thermodynamic from solid
Protocol: The method use involved stirring the sample in D2O for a period of 3 days, followed by filtration using a 0.2μ syringe filter. A measured volume of this saturated solution was diluted with a standard solution of DSS in D2O, and a ^1H NMR was taken. Integration of the DSS peaks compared to that of the analog would allow for the determination of its concentration, and thus the concentration of the saturated solution.

[2] = Solution stability (hydrolysis) in phosphate-buffered D2O at pD 5, 6, 7 monitored by 1H NMR; format: physicochemical; conditions: for stability to the pD's (in words): pD 5, 6, 7 in D2O; for Time to % hydrolysis t10% / Time to % hydrolysis t25% / Time to % hydrolysis t50%: 23° C.; for change in 1H NMR spectra: after 167 days, pD 5, 6, 7
Protocol: 10 mL (11.07 g) D2O was placed in 3 separate vials with a stir bar and 0.002 moles (0.272 g) monobasic potassium phosphate (KH2PO4) was added to each. With the pD metered, NaOD/D2O was added drop-wise to each to adjust the pD's to 5.0, 6.0, and 7.0. Each of these solutions was gently boiled before use. Thus each vial contained […] phosphate buffered solution. […] The sample was sterilized by heating for 10 seconds, and after it had cooled down to ambient temperature (about 1 minute), 0.3 mL of one of the 0.2 mM 3 buffered solutions was added. The 0.6 mL sample was then placed in a sterilized NMR tube and the tube sealed and labeled. Each of the samples was stored at 23° C. protected from the light and monitored by ^1H NMR (64 scans for each sample) periodically.

in vivo = conditions: male, Sprague-Dawley, rat, iv
[3] = rat, in vivo, iv; for AUCinf/AUClast of the pro-drug: male, Sprague-Dawley
[4] = water; cited from earlier work
[5] = Pharmacokinetics after intravenous administration in male Sprague-Dawley rats; conditions: for mean concentration of acetaminophen in rat plasma or blood: 66 μmol/kg nominal, plasma (blood for 18, 19);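 for all read-outs here: rats fasted overnight before dosing and fed about 4 h afterwards, with serial blood sampled through a carotid artery catheter at each time point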
[6] = stirred 3 days in D2O, 0.2 μ filtered
[7] = acetaminophen analyte after IV dose of acetaminophen or pro-drug, rat

Molecule | relative molar solubility [1] | solubility at 3 days [1] | AUC(0-inf) (in vivo) [µM·h] | AUC(0-t) (in vivo) [µM·h] | C0 (in vivo) [µM] | MRT inf (in vivo) [min] | Vd (in vivo) [L/kg] | clearance (in vivo) [mL/min/kg] | half-life (in vivo) [min] | AUCinf/AUClast of the pro-drug [3] [%] | AUC of the pro-drug (in words) [3] | half-lives of the pro-drug (in words) [3] | change in 1H NMR spectra [2] | other results
CC(=O)Nc1ccc(O[C@@H]2C=C[C@H](O)[C@@H](CO)O2)cc1 [compound 1, N-(4-((2R,5S,6R)-5-hydroxy-6-(hydroxymethyl)-5,6-dihydro-2H-pyran-2-yloxy)phenyl)acetamide] | 0.6 | 14000 µg/mL and 53000 µM | – | – | – | – | – | – | – | – | – | – | – | stability to the pD's (in words) [2]: least stable; Time to % hydrolysis t10% ([2]; pD 5, D2O): 0.3 days; Time to % hydrolysis t25% ([2]; pD 5, D2O): 0.8 days; Time to % hydrolysis t50% ([2]; pD 5, D2O): 2.0 days; Time to % hydrolysis t10% ([2]; pD 6, D2O): 2.25 days; Time to % hydrolysis t25% ([2]; pD 6, D2O): 6.25 days; Time to % hydrolysis t50% ([2]; pD 6, D2O): 17 days; Time to % hydrolysis t10% ([2]; pD 7, D2O): 5.5 days; Time to % hydrolysis t25% ([2]; pD 7, D2O): 26 days; Time to % hydrolysis t50% ([2]; pD 7, D2O): 70 days
CC(=O)Nc1ccc(O[C@H]2O[C@H](CO)[C@@H](O[C@H]3O[C@H](CO)[C@@H](O)[C@H](O)[C@H]3O)[C@H](O)[C@@H]2O)cc1 [compound 5, 1-(4-acetaminophenoxy) 2-epi maltose] | >14 | > 621000 µg/mL and > 1.3e+06 µM | 1.69 | 1.57 | 2.49 | 39.2 | 26.8 | 759 | 79.2 | 106 | high | relatively high | no change | solubility (in words) [1]: highest solubility
CC(=O)Nc1ccc(O[C@H]2O[C@H](CO)[C@@H](O)[C@H](O)[C@@H]2O)cc1 [compound 8, 1-(4′-acetamidophenoxy) mannose] | 1.8 | 51000 µg/mL and 164000 µM | 44.9 | 44.9 | 336 | 14.2 | 0.349 | 24.7 | 39.5 | 100 | low | – | no change | –
CC(=O)Nc1ccc(O[C@@H]2CCC(O)[C@@H](CO)O2)cc1 (some centres unmarked) [compound 12, 1-(4′-acetamidophenoxy) 2,3-dideoxy glucose] | 0.3 | 9000 µg/mL and 31000 µM | – | – | – | – | – | – | – | – | – | – | – | stability to the pD's (in words) [2]: a lot of instability; Time to % hydrolysis t10% ([2]; pD 5, D2O): 7 days; Time to % hydrolysis t25% ([2]; pD 5, D2O): 20 days; Time to % hydrolysis t50% ([2]; pD 5, D2O): 58 days; Time to % hydrolysis t10% ([2]; pD 6, D2O): 48 days
CC(=O)Nc1ccc(O[C@H]2O[C@H](COC(C)=O)[C@@H](O)[C@H](O)[C@@H]2O)cc1 [compound 15] | 5.6 | 203000 µg/mL and 570000 µM | 14.2 | 14.2 | 95.8 | 10.2 | 0.8 | 78.7 | 13.2 | 100 | low | – | – | –
CCCC(=O)OC[C@H]1O[C@H](Oc2ccc(NC(C)=O)cc2)[C@@H](O)[C@@H](O)[C@@H]1O [compound 18, 1-(4′-acetamidophenoxy)-6-O-butyrylmannose] | 0.81 | 30000 µg/mL and 77000 µM | 3.31 | 3.3 | 43.1 | 4.56 | 1.56 | 345 | 3.13 | 100 | low | – | – | –
CC(=O)Nc1ccc(O[C@H]2O[C@H](COC(=O)C(C)C)[C@@H](O)[C@H](O)[C@@H]2O)cc1 [compound 19, 1-(4′-acetamidophenoxy)-6-O-isobutyrylmannose] | 0.43 | 16000 µg/mL and 41000 µM | 3.68 | 3.68 | 31.1 | 8.7 | 1.77 | 203 | 14.6 | 100 | low | – | – | –
CC(=O)Nc1ccc(O[C@H]2O[C@H](COC(=O)CCC(=O)O)[C@@H](O)[C@H](O)[C@@H]2O)cc1 [compound 20] | – | – | 51.9 | 51.8 | 218 | 25.2 | 0.549 | 22.7 | 123 | 100 | high | relatively high | – | –
CC(=O)Nc1ccc(O[C@H]2O[C@H](C)[C@@H](O)[C@H](O)[C@@H]2O)cc1 [compound 23, 1-(4′-acetamidophenoxy)-6-deoxymannose] | 2.1 | 60000 µg/mL and 202000 µM | 44.1 | 44 | 123 | 52.7 | 1.58 | 24.9 | 116 | 100 | high | relatively high | – | –
acetaminophen | – | – | – | – | – | – | – | – | – | – | – | – | no change | literature value of acetaminophen's solubility [4]: 14 mg/mL; D2O solubility (mM) [1, 6]: 95 mM; D2O solubility (mg/mL) [1, 6]: 13 mg/mL; mean concentration of acetaminophen in rat plasma or blood ([5]; 2 min after IV dose of acetaminophen or pro-drug): 133.854 µM; mean concentration of acetaminophen in rat plasma or blood ([5]; 5 min after IV dose of acetaminophen or pro-drug): 89.75 µM; mean concentration of acetaminophen in rat plasma or blood ([5]; 0.250 h after IV dose of acetaminophen or pro-drug): 45.118 µM; mean concentration of acetaminophen in rat plasma or blood ([5]; 0.500 h after IV dose of acetaminophen or pro-drug): 23.661 µM; mean concentration of acetaminophen in rat plasma or blood ([5]; 2.00 h after IV dose of acetaminophen or pro-drug): 0.823 µM; mean concentration of acetaminophen in rat plasma or blood ([5]; 4.00 h after IV dose of acetaminophen or pro-drug): 0.528 µM; mean concentration of acetaminophen in rat plasma or blood ([5]; 6.00 h after IV dose of acetaminophen or pro-drug): 0.237 µM; mean concentration of acetaminophen in rat plasma or blood ([5]; 8.00 h after IV dose of acetaminophen or pro-drug): 0.108 µM; AUCinf of acetaminophen [5, 7]: 41.231 µM·h; AUCinf/AUClast of acetaminophen [5, 7]: 100%; AUClast of acetaminophen [5, 7]: 41.031 µM·h; MRTinf of acetaminophen [5, 7]: 39.7 min; Vdss of acetaminophen [5, 7]: 1.06 L/kg; t1/2 of acetaminophen from the pro-drug [5, 7]: 148 min; C0 ([5]; read-out: C0 of acetaminophen, acetaminophen analyte after IV dose of acetaminophen or pro-drug, extrapolated to time 0): 175 µM
